Drawing on patent US20240199623A1 (ILDONG PHARMACEUTICAL CO., LTD., priority 2020, published 2024), this text covers EC50 for 25 molecules.

Molecules are shown by their SMILES. Where only a bound is given, the exact number is not on record here.

Chain of human wild type-CFTR (P13569 whole entry): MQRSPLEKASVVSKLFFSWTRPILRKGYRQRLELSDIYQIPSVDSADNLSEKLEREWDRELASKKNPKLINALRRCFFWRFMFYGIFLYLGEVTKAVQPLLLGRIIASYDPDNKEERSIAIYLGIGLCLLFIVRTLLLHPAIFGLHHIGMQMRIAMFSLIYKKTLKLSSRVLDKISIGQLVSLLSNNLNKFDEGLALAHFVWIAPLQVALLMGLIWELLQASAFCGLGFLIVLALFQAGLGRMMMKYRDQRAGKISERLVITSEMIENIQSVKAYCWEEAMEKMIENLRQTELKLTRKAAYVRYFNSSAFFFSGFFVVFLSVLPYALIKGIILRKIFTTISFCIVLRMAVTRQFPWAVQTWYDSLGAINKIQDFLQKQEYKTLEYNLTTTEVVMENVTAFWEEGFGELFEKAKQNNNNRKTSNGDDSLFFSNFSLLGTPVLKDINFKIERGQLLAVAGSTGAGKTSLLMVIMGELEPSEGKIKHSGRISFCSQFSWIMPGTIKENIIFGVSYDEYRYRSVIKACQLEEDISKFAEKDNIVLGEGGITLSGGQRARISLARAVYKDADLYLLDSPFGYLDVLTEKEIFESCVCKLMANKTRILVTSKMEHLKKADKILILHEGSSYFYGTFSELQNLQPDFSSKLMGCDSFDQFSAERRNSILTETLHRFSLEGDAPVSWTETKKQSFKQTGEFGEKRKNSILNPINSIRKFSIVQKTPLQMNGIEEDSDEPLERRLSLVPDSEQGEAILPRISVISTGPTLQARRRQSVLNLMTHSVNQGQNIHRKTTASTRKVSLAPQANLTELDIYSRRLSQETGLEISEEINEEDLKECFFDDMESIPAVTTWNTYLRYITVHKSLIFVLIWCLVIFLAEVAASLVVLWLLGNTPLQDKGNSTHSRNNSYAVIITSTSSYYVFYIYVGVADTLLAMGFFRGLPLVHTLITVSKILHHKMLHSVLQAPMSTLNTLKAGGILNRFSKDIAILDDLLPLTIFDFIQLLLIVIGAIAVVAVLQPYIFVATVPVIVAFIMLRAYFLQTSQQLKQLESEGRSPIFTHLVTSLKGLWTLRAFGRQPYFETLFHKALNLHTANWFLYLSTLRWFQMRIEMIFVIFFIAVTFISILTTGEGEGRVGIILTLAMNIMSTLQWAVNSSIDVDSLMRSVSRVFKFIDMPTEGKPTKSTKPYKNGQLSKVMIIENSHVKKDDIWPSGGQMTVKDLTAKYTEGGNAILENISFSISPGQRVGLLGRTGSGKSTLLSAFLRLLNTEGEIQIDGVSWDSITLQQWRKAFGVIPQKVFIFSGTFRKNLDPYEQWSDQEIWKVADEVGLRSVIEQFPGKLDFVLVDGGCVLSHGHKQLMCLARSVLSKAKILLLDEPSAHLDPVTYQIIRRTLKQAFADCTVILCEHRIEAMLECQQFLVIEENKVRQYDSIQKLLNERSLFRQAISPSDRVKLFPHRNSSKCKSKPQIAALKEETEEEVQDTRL

In the assay the target is human wild type-CFTR (Homo sapiens, UniProt P13569). Briefly: Cell-based YFP assay. Set-up: expressed in transfected cells; host or cells: CHO-K1 (Chinese hamster ovary). Particulars: CHO-K1 cells expressing human wild type-CFTR and YFP-H148Q/I152L; forskolin 20 μM = 100% activity; read-out: Cell-based YFP Assay (EC50) Concentration Range. In short, it runs like this:
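I⁻-driven YFP fluorescence quenching at 37 °C: 2 s baseline, addition of 140 mM iodide solution, then 14 s of readings at 0.4 s intervals. Cells were CHO-K1 expressing human wild-type CFTR plus YFP-H148Q/I152L. EC50 derived from averaged triplicates.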
In the case of `COc1ccc(-c2ccnc3cc(C(=O)N[C@H]4CC[C@H](C(=O)N5CCN(C)CC5)CC4)nn23)cc1OC` [Compound 241, 7-(3,4-dimethoxyphenyl)-N-((1r,4r)-4-(4-methylpiperazine-1-carbonyl)cyclohexyl) pyrazolo[1,5-a]pyrimidine-2-carboxamide], the EC50 is not below 2 µM.

For the molecule `CCOc1ccc(NC(=O)c2cc3nccc(-c4cc(OC)c(OC)cc4C)n3n2)cc1` [Compound 339, 7-(4,5-dimethoxy-2-methylphenyl)-N-(4-ethoxyphenyl)pyrazolo [1,5-a]pyrimidine-2-carboxamide], the EC50 is not below 2 µM.

Turning to `COc1ccc(-c2ccnc3cc(C(=O)Nc4ccc(C(=O)NCCCN5CCOCC5)cc4)nn23)cc1OC` [Compound 173, 7-(3,4-dimethoxyphenyl)-N-(4-((3-morpholinopropyl)carbamoyl)phenyl)pyrazolo [1,5-a]pyrimidine-2-carboxamide], the EC50 is less than 0.2 µM.

As to `COc1ccc(-c2ccnc3cc(C(=O)Nc4ccc(C(=O)N5CCOCC5)nc4)nn23)cc1OC` [Compound 264, 7-(3,4-dimethoxyphenyl)-N-(6-(morpholine-4-carbonyl)pyridin-3-yl) pyrazolo[1,5-a]pyrimidine-2-carboxamide], the EC50 is not below 2 µM.

As to `COc1ccc(-c2ccnc3cc(C(=O)N4C[C@H](C)N(C(=O)c5ccccc5)C[C@H]4C)nn23)cc1OC` [Compound 365, ((2R,5S)-4-benzoyl-2,5-dimethylpiperazin-1-yl)(7-(3,4-dimethoxyphenyl)pyrazolo[1,5-a]pyrimidin-2-yl)methanone], the EC50 is less than 0.2 µM.

For the molecule `COc1ccc(-c2ccnc3cc(C(=O)N4CCN(C(=O)c5cccc(C)c5)[C@@H](C)C4)nn23)cc1OC` [Compound 369, (S)-(7-(3,4-dimethoxyphenyl)pyrazolo[1,5-a]pyrimidin-2-yl)(3-methyl-4-(3-methylbenzoyl)piperazin-1-yl)methanone], the EC50 is less than 0.2 µM.

As for `COC(=O)c1ccc(NC(=O)c2cc3nccc(-c4ccc(OC)c(OC)c4)n3n2)cc1C` [Compound 191, methyl 4-(7-(3,4-dimethoxyphenyl)pyrazolo [1,5-a]pyrimidine-2-carboxamido)-2-methylbenzoate], the EC50 is less than 0.2 µM.

Take `COc1ccc(-c2ccnc3cc(C(=O)N4CCN[C@@H](C5CC5)C4)nn23)cc1OC` [Compound 374, (S)-(3-cyclopropylpiperazin-1-yl)(7-(3,4-dimethoxyphenyl)pyrazolo [1,5-a]pyrimidin-2-yl)methanone]: the EC50 lay within 0.2 to 2 µM.

`COc1ccc(NC(=O)c2cc3nccc(-c4ccc(OC)c(OC)c4)n3n2)c(F)c1` [Compound 325, 7-(3,4-dimethoxyphenyl)-N-(2-fluoro-4-methoxyphenyl)pyrazolo [1,5-a]pyrimidine-2-carboxamide]: the EC50 was less than 0.2 µM.

Turning to `COc1ccc(-c2ccnc3cc(C(=O)N4CCN(C(=O)c5cccnc5)[C@@H](C)C4)nn23)cc1OC` [Compound 382, (S)-(7-(3,4-dimethoxy-phenyl)pyrazolo[1,5-a]pyrimidin-2-yl) (3-methyl-4-nicotinoylpiperazin-1-yl)methanone], the EC50 is less than 0.2 µM.

On to `COc1ccc(-c2ccnc3cc(C(=O)Nc4ccc(OC(=O)[C@@H](NC(=O)OCc5ccccc5)C(C)C)cc4)nn23)cc1OC` [Compound 171, 4-(7-(3,4-dimethoxyphenyl)pyrazolo[1,5-a]pyrimidine-2-carboxamido)phenyl ((benzyloxy)carbonyl)-L-valinate], for which the EC50 is less than 0.2 µM.

With `COc1ccc(-c2ccnc3cc(C(=O)N4C[C@@H](C)N(C(=O)c5ccccc5)[C@@H](C)C4)nn23)cc1OC` [Compound 363, ((3R,5S)-4-benzoyl-3,5-dimethylpiperazin-1-yl)(7-(3,4-dimethoxyphenyl)pyrazolo[1,5-a]pyrimidin-2-yl) methanone], the EC50 is less than 0.2 µM.

For `COc1ccc(-c2ccnc3cc(C(=O)N[C@H]4CC[C@H](C(=O)N5CCNCC5)CC4)nn23)cc1OC` [Compound 82, 7-(3,4-dimethoxyphenyl)-N-((1R,4R)-4-(piperazine-1-carbonyl)cyclohexyl) pyrazolo[1,5-a]pyrimidine-2-carboxamide], the EC50 was not below 2 µM.

Regarding `COC(=O)c1cc2nccc(-c3ccc(OC)c(OC)c3)n2n1` [Compound 4], the EC50 fell in the range of 0.2 to 2 µM.

Take `COc1ccc(-c2ccnc3cc(C(=O)Nc4ccc(CO)cc4)nn23)cc1OC` [Compound 292, 7-(3,4-dimethoxyphenyl)-N-(4-(hydroxymethyl)phenyl) pyrazolo[1,5-a]pyrimidine-2-carboxamide]: the EC50 was less than 0.2 µM.

For the molecule `CCOc1ccc(NC(=O)c2cc3nccc(-c4ccc(F)c(C)c4)n3n2)cc1` [Compound 302, N-(4-ethoxyphenyl)-7-(4-fluoro-3-methylphenyl)pyrazolo [1,5-a]pyrimidine-2-carboxamide], the EC50 was not below 2 µM.

For `COc1ccc(-c2ccnc3cc(C(=O)Nc4ccc(C(=O)O)c(C)c4)nn23)cc1OC` [Compound 213, 4-(7-(3,4-dimethoxyphenyl)pyrazolo[1,5-a]pyrimidine-2-carboxamido)-2-methylbenzoic acid], the EC50 is not below 2 µM.

For `COc1ccc(-c2ccnc3cc(C(=O)Nc4ccc(C(=O)O)c(F)c4)nn23)cc1OC` [Compound 278, 4-(7-(3,4-dimethoxyphenyl)pyrazolo[1,5-a]pyrimidine-2-carboxamido)-2-fluorobenzoic acid], the EC50 was not below 2 µM.

Regarding `CCOc1ccc(NC(=O)c2cc3nccc(-c4ccc(F)c(F)c4)n3n2)cc1` [Compound 293], the EC50 was not below 2 µM.

As to `COc1ccc(-c2ccnc3cc(C(=O)N4CCN[C@@H](C)C4)nn23)cc1OC` [Compound 181, (S)-(7-(3,4-dimethoxyphenyl)pyrazolo[1,5-a]pyrimidin-2-yl)(3-methylpiperazin-1-yl)methanone], the EC50 was not below 2 µM.

Regarding `COc1ccc(-c2ccnc3cc(C(=O)NC45CC(C(=O)OCCCN6CCOCC6)(C4)C5)nn23)cc1OC` [Compound 199, 3-morpholinopropyl 3-(7-(3,4-dimethoxyphenyl)pyrazolo [1,5-a]pyrimidine-2-carboxamido)bicyclo[1.1.1] pentane-1-carboxylate], the EC50 lay in the range of 0.2 to 2 µM.

Regarding `CCOC(=O)c1ccc(NC(=O)c2cc3nccc(-c4ccc(OC)c(OC)c4)n3n2)cc1` [Compound 334, ethyl 4-(7-(3,4-dimethoxyphenyl)pyrazolo[1,5-a]pyrimidine-2-carboxamido)benzoate], the EC50 is less than 0.2 µM.

As to `COc1ccc(-c2ccnc3cc(C(=O)Nc4ccc(C(=O)N[C@H](C)C(=O)O)cc4)nn23)cc1OC` [Compound 89, (4-(7-(3,4-dimethoxyphenyl)pyrazolo[1,5-a]pyrimidine-2-carboxamido)benzoyl)-D-alanine], the EC50 was not below 2 µM.

Regarding `COc1ccc(-c2ccnc3cc(C(=O)Nc4ccc(C(=O)O)c(OC)c4)nn23)cc1OC` [Compound 216, 4-(7-(3,4-dimethoxyphenyl)pyrazolo[1,5-a]pyrimidine-2-carboxamido)-2-methoxybenzoic acid], the EC50 was not below 2 µM.

For the molecule `CCCOc1ccc(NC(=O)c2cc3nccc(-c4ccc(OC)c(OC)c4)n3n2)cc1` [Compound 230, 7-(3,4-dimethoxyphenyl)-N-(4-propoxyphenyl)pyrazolo [1,5-a]pyrimidine-2-carboxamide], the EC50 is less than 0.2 µM.
